Test system: CVD (CHD or stroke)
Test: WOSCOPS: SNP by pravastatin treatment interaction, logistic regression (synergy index), CVD endpoint
Assay type: in vivo, human
Details: for OR (synergy index), WOSCOPS, Prava vs Placebo: CVD endpoint, Caseonly; for OR (SNP x pravastatin treatment interaction): WOSCOPS pravastatin vs placebo
From the text: CARE was a secondary prevention trial and WOSCOPS was a primary prevention trial.
The CHD endpoint was defined in the analyses herein of CARE as a composite endpoint of fatal CHD, definite non-fatal MI, or revascularization, and was defined in the analyses herein of WOSCOPS as a composite endpoint of death from CHD, nonfatal MI, or revascularization. In both the CARE and WOSCOPS analyses herein, the CVD endpoint was defined as a composite endpoint of CHD or stroke. […] Revascularization, which can include percutaneous transluminal coronary angioplasty (PTCA), stent placement, and coronary artery bypass graft (CABG), are medical interventions that indicate the presence of CHD.
Cohort and case-only study designs were used to identify SNPs associated with response to statin treatment.
For each SNP, a logistic regression model having treatment status as the dependent variable and SNP as the independent predictor variable was performed, with terms for age, sex and race included in the model as covariates. The anti-log of the regression coefficient corresponding to the SNP is an estimate of the synergy index (SI) (Davis et al., “Imputing gene-treatment interactions when the genotype distribution is unknown using case-only and putative placebo analyses-a new method for the Genetics of Hypertension Associated Treatment (GenHAT) study”, Statistics in Medicine 23: (2004), pages 2413-2427). The SI is a ratio of odds ratios: for example in the CARE and WOSCOPS studies, the SI represents the factor by which the odds-ratio of statin treatment, compared with placebo, among major homozygous individuals is multiplied by in order to obtain the odds-ratio of treatment vs. placebo among heterozygous individuals; and multiplied by a second time to obtain the odds-ratio of treatment vs. placebo in minor homozygous individuals. […] In a randomized clinical trial, genotype and treatment are independent by design.

CC[C@H](C)C(=O)O[C@H]1C[C@H](O)C=C2C=C[C@H](C)[C@H](CC[C@@H](O)C[C@@H](O)CC(=O)O)[C@H]21 [Pravastatin, pravastatin]
OR (synergy index), WOSCOPS, Prava vs Placebo (SNP rs304601 (A1 A, A2 G), rec model): 3.93 | OR (synergy index), WOSCOPS, Prava vs Placebo (SNP rs988146 (A1 G, A2 A), add model): 0.80 | OR (SNP x pravastatin treatment interaction) (SNP rs1241967, allele A1=T, model REC, Imputed): 0.5915 | OR (SNP x pravastatin treatment interaction) (SNP rs1247340, allele A1=C, model ADD, Imputed): 1.51 | OR (SNP x pravastatin treatment interaction) (SNP rs1247340, allele A1=C, model DOM, Imputed): 1.767 | OR (SNP x pravastatin treatment interaction) (SNP rs1247341, allele A1=C, model ADD, Imputed): 1.524 | OR (SNP x pravastatin treatment interaction) (SNP rs1247341, allele A1=C, model DOM, Imputed): 1.795 | OR (SNP x pravastatin treatment interaction) (SNP rs1247343, allele A1=C, model DOM, Imputed): 1.681 | OR (SNP x pravastatin treatment interaction) (SNP rs1335721, allele A1=A, model REC, Imputed): 0.5999 | OR (SNP x pravastatin treatment interaction) (SNP rs1336382, allele A1=T, model DOM, Imputed): 1.458 | OR (SNP x pravastatin treatment interaction) (SNP rs1336383, allele A1=T, model DOM, Imputed): 1.458 | OR (SNP x pravastatin treatment interaction) (SNP rs1336407, allele A1=T, model DOM, Imputed): 1.458 | OR (SNP x pravastatin treatment interaction) (SNP rs1336409, allele A1=T, model DOM, Imputed): 1.458 | OR (SNP x pravastatin treatment interaction) (SNP rs1336596, allele A1=A, model DOM, Imputed): 0.6728 | OR (SNP x pravastatin treatment interaction) (SNP rs1355715, allele A1=T, model ADD, Imputed): 0.5755 | OR (SNP x pravastatin treatment interaction) (SNP rs1363273, allele A1=C, model REC, Imputed): 0.5817 | OR (SNP x pravastatin treatment interaction) (SNP rs1373601, allele A1=A, model DOM, Imputed): 0.5287 | OR (SNP x pravastatin treatment interaction) (SNP rs1395748, allele A1=G, model DOM, Imputed): 0.6603 | OR (SNP x pravastatin treatment interaction) (SNP rs1414865, allele A1=T, model DOM, Imputed): 1.433 | OR (SNP x pravastatin treatment interaction) (SNP rs1414873, allele A1=A, model DOM, Imputed): 1.458 | OR (SNP x pravastatin treatment interaction) (SNP rs1414876, allele A1=C, model DOM, Imputed): 1.458 | OR (SNP x pravastatin treatment interaction) (SNP rs1424643, allele A1=G, model ADD, Imputed): 1.554 | OR (SNP x pravastatin treatment interaction) (SNP rs1424643, allele A1=G, model DOM, Imputed): 1.592 | OR (SNP x pravastatin treatment interaction) (SNP rs1424648, allele A1=T, model DOM, Imputed): 1.619 | OR (synergy index), WOSCOPS, Prava vs Placebo (SNP rs1559557 (A1 G, A2 A), add model): 1.53 | OR (synergy index), WOSCOPS, Prava vs Placebo (SNP rs1877527 (A1 G, A2 A), add model): 0.77 | OR (synergy index), WOSCOPS, Prava vs Placebo (SNP rs2132241 (A1 A, A2 G), add model): 0.70 | OR (synergy index), WOSCOPS, Prava vs Placebo (SNP rs2270588 (A1 G, A2 A), add model): 0.75 | OR (synergy index), WOSCOPS, Prava vs Placebo (SNP rs9325191 (A1 A, A2 C), add model): 0.69 | OR (synergy index), WOSCOPS, Prava vs Placebo (SNP rs9346951 (A1 A, A2 G), add model): 1.25 | OR (synergy index), WOSCOPS, Prava vs Placebo (SNP rs10787944 (A1 G, A2 A), dom model): 1.45 | OR (SNP x pravastatin treatment interaction) (SNP rs11959206, allele A1=A, model REC, Imputed): 0.5862 | OR (SNP x pravastatin treatment interaction) (SNP rs12038613, allele A1=C, model REC, Imputed): 0.5999 | OR (SNP x pravastatin treatment interaction) (SNP rs12151417, allele A1=T, model DOM, Imputed): 1.573 | OR (SNP x pravastatin treatment interaction) (SNP rs12153185, allele A1=T, model DOM, Imputed): 0.6973 | OR (SNP x pravastatin treatment interaction) (SNP rs12182651, allele A1=T, model DOM, Imputed): 2.24 | OR (SNP x pravastatin treatment interaction) (SNP rs12235345, allele A1=C, model DOM, Imputed): 1.42 | OR (SNP x pravastatin treatment interaction) (SNP rs12324786, allele A1=T, model REC, Imputed): 2.796 | OR (SNP x pravastatin treatment interaction) (SNP rs12336958, allele A1=G, model DOM, Imputed): 1.46 | OR (SNP x pravastatin treatment interaction) (SNP rs12407412, allele A1=C, model ADD, Imputed): 1.382 | OR (SNP x pravastatin treatment interaction) (SNP rs12407412, allele A1=C, model DOM, Imputed): 1.401 | OR (SNP x pravastatin treatment interaction) (SNP rs12418971, allele A1=C, model REC, Imputed): 1.699 | OR (SNP x pravastatin treatment interaction) (SNP rs12420184, allele A1=G, model DOM, Imputed): 0.6518 | OR (SNP x pravastatin treatment interaction) (SNP rs12433968, allele A1=T, model DOM, Imputed): 0.7213 | OR (SNP x pravastatin treatment interaction) (SNP rs12445477, allele A1=A, model DOM, Imputed): 0.4063 | OR (SNP x pravastatin treatment interaction) (SNP rs12447191, allele A1=T, model ADD, Genotyped): 0.6489 | OR (SNP x pravastatin treatment interaction) (SNP rs12447191, allele A1=T, model DOM, Genotyped): 0.5081 | OR (SNP x pravastatin treatment interaction) (SNP rs12465349, allele A1=A, model REC, Imputed): 1.587 | OR (SNP x pravastatin treatment interaction) (SNP rs12509758, allele A1=C, model DOM, Imputed): 1.856 | OR (SNP x pravastatin treatment interaction) (SNP rs12515472, allele A1=A, model DOM, Imputed): 1.531 | OR (SNP x pravastatin treatment interaction) (SNP rs12548906, allele A1=G, model ADD, Imputed): 1.496 | OR (SNP x pravastatin treatment interaction) (SNP rs12596240, allele A1=G, model DOM, Imputed): 0.6708 | OR (SNP x pravastatin treatment interaction) (SNP rs12618781, allele A1=A, model DOM, Imputed): 0.5446 | OR (SNP x pravastatin treatment interaction) (SNP rs12678600, allele A1=A, model DOM, Imputed): 0.6479 | OR (SNP x pravastatin treatment interaction) (SNP rs12692229, allele A1=T, model ADD, Imputed): 1.315 | OR (SNP x pravastatin treatment interaction) (SNP rs12713324, allele A1=T, model DOM, Imputed): 1.584 | OR (SNP x pravastatin treatment interaction) (SNP rs12719415, allele A1=T, model DOM, Imputed): 0.6887 | OR (SNP x pravastatin treatment interaction) (SNP rs12820589, allele A1=G, model ADD, Imputed): 1.758
